Measurements taken from the NIST ThermoML archive (doi:10.1016/j.jct.2016.10.009).

Test: xn = mol fraction of the nth substance listed
Details: Liquid, Vibrating tube method

CC(C)OC(C)C [diisopropyl ether] + CCC(C)O
mass density [kg/m3]
Details	x2 = 0	x2 = 0.2036	x2 = 0.3227	x2 = 0.4464	x2 = 0.4973	x2 = 0.6595	x2 = 0.8482
298.15 K, 80000 kPa	–	–	–	–	–	823.7	837.7
298.15 K, 90000 kPa	790.3	801	807.7	814.9	818	828.7	842.4
298.15 K, 100000 kPa	795.7	806.1	812.7	819.8	822.9	833.3	846.9
298.15 K, 110000 kPa	800.8	811.1	817.6	824.5	827.5	837.9	851.2
298.15 K, 120000 kPa	805.6	815.8	822.1	829	832	842.1	855.3
298.15 K, 130000 kPa	810.3	820.3	826.5	833.3	836.3	846.3	859.2
298.15 K, 140000 kPa	814.6	824.6	830.9	837.5	840.4	850.3	863.1
313.15 K, 100 kPa	702.4	717.2	726.3	736.2	740.5	755.1	773.8
313.15 K, 1000 kPa	703.8	718.4	727.5	737.3	741.6	756.1	774.7
313.15 K, 5000 kPa	709.4	723.5	732.4	741.9	746.1	760.2	778.4
313.15 K, 10000 kPa	715.8	729.6	738.2	747.4	751.5	765.2	782.9
313.15 K, 15000 kPa	721.7	735	743.4	752.4	756.4	769.8	787.1
313.15 K, 20000 kPa	727.2	740.2	748.4	757.1	761	774.1	791.1
313.15 K, 25000 kPa	732.1	744.8	752.8	761.4	765.2	778	794.6
313.15 K, 30000 kPa	737.1	749.5	757.4	765.8	769.6	782.1	798.4
313.15 K, 35000 kPa	741.6	753.8	761.5	769.8	773.5	785.8	801.8
313.15 K, 40000 kPa	745.9	757.8	765.4	773.6	777.2	789.3	805.1
313.15 K, 45000 kPa	750	761.7	769.2	777.2	780.8	792.8	808.3
313.15 K, 50000 kPa	753.9	765.5	772.9	780.8	784.3	796.1	811.4
313.15 K, 55000 kPa	757.7	769.1	776.4	784.2	787.7	799.3	814.4
313.15 K, 60000 kPa	761.3	772.7	779.8	787.4	790.9	802.3	817.3
313.15 K, 65000 kPa	764.8	776	783.1	790.7	794.1	805.4	820.1
313.15 K, 70000 kPa	768.1	779.1	786.1	793.7	797	808.2	822.8
313.15 K, 80000 kPa	774.4	785.2	792.1	799.4	802.7	813.7	827.9
313.15 K, 90000 kPa	780.5	791	797.8	805	808.2	818.9	832.9
313.15 K, 100000 kPa	786.1	796.5	803.1	810.1	813.4	823.9	837.6
313.15 K, 110000 kPa	791.4	801.7	808.2	815.1	818.3	828.6	842.1
313.15 K, 120000 kPa	796.5	806.5	813	819.8	822.9	833	846.4
313.15 K, 130000 kPa	801.4	811.3	817.7	824.4	827.4	837.4	850.5
313.15 K, 140000 kPa	806	815.8	822	828.7	831.7	841.6	854.5
333.15 K, 100 kPa	680.5	695.4	704.8	715.1	719.6	734.7	754.2
333.15 K, 1000 kPa	682.1	696.9	706.3	716.4	720.9	735.9	755.4
333.15 K, 5000 kPa	688.9	703	712.1	721.9	726.3	740.8	759.7
333.15 K, 10000 kPa	696.4	709.9	718.7	728.2	732.4	746.5	764.8
333.15 K, 15000 kPa	703.2	716.4	724.8	734	738.1	751.8	769.6
333.15 K, 20000 kPa	709.4	722.2	730.4	739.3	743.4	756.7	774.1
333.15 K, 25000 kPa	715.1	727.6	735.7	744.4	748.3	761.3	778.2
333.15 K, 30000 kPa	720.5	732.7	740.5	749.1	752.9	765.7	782.3
333.15 K, 35000 kPa	725.6	737.5	745.2	753.6	757.3	769.8	786.2
333.15 K, 40000 kPa	730.3	742	749.6	757.8	761.5	773.7	789.8
333.15 K, 45000 kPa	734.8	746.3	753.7	–	–	–	–
